From US20070037238A1, “Composition for suppressing PQQGDH reaction inhibition” (Toyo Boseki Kabushiki Kaisha, priority 2005, published 2007)

Test system: PQQGDH
Assay: Measurement with glucose electrodes
Type: biochemical
Conditions: 0.1 M potassium ferricyanide, D-glucose 5-40 mM, 25° C., +0.35 V
Experimental: 0.5 g of carbon graphite and 0.3 mL of fluid paraffin were ground well with a mortar and pestle to form a carbon paste. This carbon paste was spread on a platinum electrode, and 10 μL of PQQGDH solution (Toyo Boseki GLD-331, 2,000 U/mL) was placed thereon and air-dried for 30 minutes at room temperature. This electrode was covered with a semipermeable cellulose membrane (molecular weight cut-off 8.000), and the semipermeable membrane was fixed with an O-ring to prepare a glucose electrode. This glucose electrode was used after having been soaked for 30 minutes or more in the buffer used for measurement. […] After about 5 minutes when the response current was confirmed to have stabilized, a D-glucose solution was added and the rise in the response current was monitored. […] The theoretical values here are the response value at each concentration calculated based on measurement values at 5 mM, assuming that the D-glucose amount and measurement value are proportional, and these are given as straight lines in the figures. The response values were more linear when pimelic acid and succinic acid were added in comparison to the solution of phosphoric acid and glutaric acid alone, and the actual measured response values at glucose concentrations of 30 mM or more are particularly close to the corresponding theoretical values.

Structure (SMILES) | linearity of glucose electrode response values versus D-glucose concentration (1% pimelic acid in 50 mM potassium phosphate buffer pH 7.0 (Buffer B vs Buffer A)) | linearity of glucose electrode response values versus D-glucose concentration (1% succinic acid in 50 mM glutaric acid pH 7.0 (Buffer D vs Buffer C))
O=C(O)CCCCCC(=O)O [pimelic acid] | more linear | –
O=C(O)CCC(=O)O [succinic acid] | – | more linear
